Data from US20090104246A1 (priority 2004, published 2009).

What was measured:
[1] = tested on: human coronary artery smooth muscle cells; test: Anti-proliferative activity in synchronized cultured human coronary artery smooth muscle cells stimulated with two percent fetal bovine serum; assay type: cell-based; conditions: for effect on the anti-proliferative rapamycin dose response curve: agent added to rapamycin-treated synchronized cells, topotecan to 300 nanomolar, etoposide to eight hundred nanomolar, Panzem to 100 micromolar
Source text: (§1) The multiple curves represent various concentrations of topotecan ranging from zero to three hundred nanomolar concentrations.
(§2) The multiple curves represent various concentrations of etoposide ranging from zero to eight hundred nanomolar concentrations.
The multiple curves represent various concentrations of Panzem® ranging from zero to 100 micromolar concentrations.

[2] = tested on: human coronary artery smooth muscle cell survival; conditions: 6.6 nanomolar to 30,000.00 nanomolar
Source text: In vitro cytotoxicity tests or assays may be utilized to determine if drugs, agents and/or compounds are potentially toxic and the level of toxicity. Essentially, in vitro cytotoxicity assays determine acute necrotic effects by a drug causing direct cellular damage. The idea behind these assays is that toxic chemicals affect basic functions of cells which are common to all cells. […] There are a number of different assays that may be utilized. In the present invention, the cytotoxicity assay utilized is based upon the measurement of cellular metabolic activity. A reduction in metabolic activity is an indication of cellular damage. Tests that can measure metabolic function measure cellular ATP levels or mitochondrial activity via MTS metabolism. FIG. 69 is a graphical representation of the results of an MTS assay of Panzem®.

[3] = Liquid formulations of sirolimus with PEG 200, ethanol and water; concentrations by liquid chromatography; assay type: physicochemical; conditions: 4 mg/ml formulation with PEG 200, ethanol and water
Source text: In accordance with exemplary embodiments of the present invention, a series of liquid formulations were developed for the local or regional delivery of water insoluble compounds such as sirolimus and its analogs, including CCl-779, ABT-578 and everolimus, through weeping balloons and catheter injection needles. […] These liquid formulations increase the apparent solubility of the pharmacologically active but water insoluble compounds by two to four orders of magnitude as compared to the solubility limits of the compounds in water. These liquid formulations rely on the use of a very small amount of organic solvents such as Ethanol (typically less than two percent) and a larger amount of safe amphiphilic (of or relating to a molecule having a polar, water soluble group attached to a non-polar, water insoluble […]) excipients such as polyethylene glycol (PEG 200, PEG 400) and vitamin E TPGS to enhance the solubility of the compounds. These liquid formulations of highly water insoluble compounds are stable and readily flowable at room temperature. Certain excipients, such as Vitamin E TPGS and BHT may be utilized to enhance the storage stability of sirolimus compounds through their anti-oxidation properties. […]

cell viability = test: Cell viability assay; assay type: cell-based
Source text: as §1, §2

[4] = In vivo release kinetics from rapamycin/mycophenolic acid EVA/BMA coating, porcine pharmacokinetics studies; conditions: 180 micrograms each of rapamycin and mycophenolic acid in 600 microgram basecoat, with or without BMA topcoat
[5] = tested on: human coronary artery smooth muscle cells; test: Anti-proliferative activity in non-synchronized cultured human coronary artery smooth muscle cells stimulated with two percent fetal bovine serum; assay type: cell-based; conditions: for effect on the anti-proliferative rapamycin dose response curve: agent added to rapamycin-treated non-synchronized cells, mycophenolic acid zero to one thousand nanomolar, cladribine zero to nine hundred nanomolar
Source text: The multiple curves represent various concentrations of mycophenolic acid ranging from zero to one thousand nanomolar concentrations.
FIG. 58 illustrates, in graphical format, the anti-proliferative activity of cladribine in non-synchronized cultured human coronary artery smooth muscle cells stimulated with two percent fetal bovine serum.
The multiple curves represent various concentrations of cladribine ranging from zero to nine hundred nanomolar concentrations.

[6] = tested on: human coronary artery smooth muscle cell proliferation; test: In vitro cell culture study of coronary artery smooth muscle cell proliferation; assay type: cell-based
Source text: FIG. 51 is a graph of the inhibition of coronary artery smooth muscle cells by trichostatin A in a cell culture study.

tumor cell lines = conditions: cited from earlier work
[7] = In vivo release kinetics from rapamycin/cladribine EVA/BMA coating on Bx Velocity stents, Yorkshire pigs; parameters: species or system porcine; conditions: 600 microgram basecoat, 200 microgram BMA topcoat
Source text: (§3) The basecoat is applied to Bx Velocity® stents and implanted into Yorkshire pigs.
as §3

[8] = tested on: human smooth muscle cells; test: Cladribine Example, PDGF-stimulated cell proliferation (cell count), smooth muscle cells; assay type: cell-based; conditions: from the IC50 values
Procedure: To assess the ability of cladribine to prevent cell proliferation, human smooth muscle or endothelial cells (Clonetics, Walkersville, Md.) were seeded at a density of 2000 cells/cm^2 (approximately 3600 cells/well) into each well of 12-well plates and cultured with 1.5 ml of growth medium containing five percent fetal calf serum (FCS). After twenty-four hours, the growth medium was changed and fresh medium containing 10 ng/ml platelet-derived growth factor AB (PDGF AB; LIFE Technologies), as well as various concentrations of cladribine (0.001-10,000 nM) were added with triplicate wells. Medium was replaced with fresh cladribine-containing medium after three days. On day six, cells were detached by trypsinization to yield a cell suspension, lightly centrifuged to pellet and then counted manually using a Neubauer hemocytometer system. Cell viability was assessed by trypan blue exclusion.

## COc1cc2c(cc1O)CC[C@@H]1[C@@H]2CC[C@]2(C)[C@@H](O)CC[C@@H]12 [Panzem®, 2-methoxyestradiol]
[1]
  effect on the anti-proliferative rapamycin dose response curve: increases the percent of inhibition of rapamycin alone
[1]; synchronized cells, two percent fetal bovine serum
  anti-proliferative activity alone: extremely effective inhibitor
[2]
  cytotoxicity (MTS assay): do not reduce human coronary artery smooth muscle cell survival

## CO[C@H]1C[C@@H]2CC[C@@H](C)[C@@](O)(O2)C(=O)C(=O)N2CCCC[C@H]2C(=O)O[C@H]([C@H](C)C[C@@H]2CC[C@@H](O)[C@H](OC)C2)CC(=O)[C@H](C)/C=C(\C)[C@@H](O)[C@@H](OC)C(=O)[C@H](C)C[C@H](C)/C=C/C=C/C=C/1C [Rapamycin, rapamycin]
[3]
  concentration relative to the solubility of sirolimus in water: about four hundred to about one thousand times higher

## CC[C@@]1(O)C(=O)OCc2c1cc1n(c2=O)Cc2cc3c(CN(C)C)c(O)ccc3nc2-1 [Topotecan, topotecan]
[1]
  effect on the anti-proliferative rapamycin dose response curve: potentiate the anti-proliferative activity of rapamycin
Cell viability; concentrations up to one micromolar
  cytotoxicity in cell viability assay: non-cytotoxic

## COc1c(C)c2c(c(O)c1C/C=C(\C)CCC(=O)O)C(=O)OC2 [mycophenolic acid]
[4]
  in vivo elution from EVA/BMA basecoat compared with rapamycin: elutes more completely over a shorter duration than the rapamycin
[5]
  effect on the anti-proliferative rapamycin dose response curve: potentiates the anti-proliferative activity of rapamycin

## CC(/C=C/C(=O)NO)=C\[C@@H](C)C(=O)c1ccc(N(C)C)cc1 [trichostatin A]
[6]; human coronary artery smooth muscle cells, read-out: anti-proliferative IC50
  IC50: ~6 nM
[6]; in vitro cell culture
  inhibition of human coronary artery smooth muscle cell proliferation: completely inhibit
Tumor cell lines
  anti-proliferative IC50: low nM range

## COc1cc([C@@H]2c3cc4c(cc3[C@@H](O[C@@H]3O[C@@H]5CO[C@@H](C)O[C@H]5[C@H](O)[C@H]3O)[C@H]3COC(=O)[C@H]23)OCO4)cc(OC)c1O [Etoposide, etoposide]
[1]
  effect on the anti-proliferative rapamycin dose response curve: potentiate the anti-proliferative activity of rapamycin
Cell viability; concentrations up to ten micromolar
  cytotoxicity in cell viability assay: non-cytotoxic

## Nc1nc(Cl)nc2c1ncn2[C@H]1C[C@H](O)[C@@H](CO)O1 [Cladribine, 2-chlorodeoxyadenosine]
[7]
  in vivo elution from EVA/BMA basecoat compared with rapamycin: elutes more rapidly than rapamycin
[8]
  potency on smooth muscle cells relative to endothelial cells: approximately twice as potent
[5]
  effect on the anti-proliferative rapamycin dose response curve: potentiate the anti-proliferative activity of rapamycin
[5]; non-synchronized cells, two percent fetal bovine serum
  inhibition of human coronary artery smooth muscle cell proliferation: completely inhibits
